Ki, Vmax and Km data for four molecules are collected here from ChEMBL document CHEMBL1121960, “Importance of the aromatic ring in adrenergic amines. 8. 2-(Aminomethyl)-trans-2-decalols as inhibitors of norepinephrine N-methyltransferase” (J Med Chem, 1982).

One may read the Ki as the equilibrium dissociation constant of an inhibitor or competing ligand from its target. Read a high Ki as lower affinity. As usually defined, the Vmax is the rate approached at saturating substrate. The Km is the substrate concentration at which the rate is half of its maximum.

In data set [1] the target is T1, Phenylethanolamine N-methyltransferase (Bos taurus, UniProt P10938).
T1 sequence (P10938 whole entry): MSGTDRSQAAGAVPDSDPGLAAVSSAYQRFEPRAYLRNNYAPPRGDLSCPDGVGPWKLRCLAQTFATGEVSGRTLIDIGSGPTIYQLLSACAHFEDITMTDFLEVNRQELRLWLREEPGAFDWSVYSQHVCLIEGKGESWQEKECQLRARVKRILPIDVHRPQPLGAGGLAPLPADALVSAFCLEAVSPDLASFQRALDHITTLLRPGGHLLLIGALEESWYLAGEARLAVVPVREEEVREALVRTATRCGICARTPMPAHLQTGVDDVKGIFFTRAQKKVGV
As to the kind of experiment: Tested for inhibitory activity against bovine adrenal norepinephrine N-methyl-transferase using phenylethanolamine as substrate.

A short description of data set [2]: Vmax was determined. The data set is classed as ADME.
Compound in data set [3]: NC[C@]1(O)CCC2CCCCC2C1
Kind of data set: (§1) Tested for inhibitory constant against bovine adrenal norepinephrine N-methyl-transferase.

Compound in data set [4]: NCC1(O)CCCCCCCCCC1
Described as §1.

Compound in data set [5]: NC[C@@]1(O)CCC2CCCCC2C1
Described as §1.

Take `NC[C@@]1(O)CCC2CCCCC2C1` (some centres undefined): in data set [1], the Ki came to 5.63 µM. Moreover, in data set [2], the maximum rate (Vmax) turned out to be 0.03 nmol/min/mg.

On to `NCC1(O)CCCCCCCCCC1`, for which affinity in data set [1] was put at a Ki of 3.56 µM. For the same molecule, the Vmax in data set [2] turned out to be 0.04 nmol/min/mg.

As to `NC[C@]1(O)CCC2CCCCC2C1` (some centres undefined), the Ki in data set [1] was determined as 3.8 µM. In data set [2], the maximum rate (Vmax) amounted to 0.024 nmol/min/mg.

B1: Phenylethanolamine N-methyltransferase (Bos taurus), P10938 (protein)
chain: T1 sequence (P10938 whole entry)
On to B1, for which the Michaelis-Menten constant (Km) came to 5.7 µM in data set [3], 6.8 µM in data set [4] and 4.7 µM in data set [5].
